Measured values taken from paper PMC12703428, “Development of Granzyme A Turn‐ON Fluorescent Activity‐Based Probes” (Chembiochem, 2025).
Entries after “also recorded” stand apart in the source; their conditions may differ. Square brackets hold non-standard residues; d marks the D form. Ends that are not written are not given here. Oic = O=C(O)[C@@H]1C[C@@H]2CCCC[C@@H]2N1; Tic = O=C(O)[C@@H]1Cc2ccccc2CN1

Assays:
GzmK = biological target: T1, GzmK (Homo sapiens, UniProt P49863); test: Cross-reactivity labeling, GzmK; format: biochemical; conditions: GzmK 100 nM, probe 10-100 nM, 2 h, 37 °C, in-gel fluorescence
T1 sequence (P49863 27-264): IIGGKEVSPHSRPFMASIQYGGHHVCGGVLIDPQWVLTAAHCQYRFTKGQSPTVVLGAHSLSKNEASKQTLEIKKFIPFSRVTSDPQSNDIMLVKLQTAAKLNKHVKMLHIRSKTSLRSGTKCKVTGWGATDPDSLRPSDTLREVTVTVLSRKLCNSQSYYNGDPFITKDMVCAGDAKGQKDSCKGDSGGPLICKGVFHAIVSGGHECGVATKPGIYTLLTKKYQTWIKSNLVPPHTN
Experimental: Protease (100 nM) HNE PR3 GzmK GzmA
Protease (100 nM) GzmA GzmK
Supplementary Figure 2. Cross-reactivity of probes. (A) Labeling of GzmA, GzmK, PR3, and HNE
(100 nM, 2 h, 37 °C) by 100 nM of 5 and 6. (B) Labeling of GzmA and GzmK (100 nM, 2 h, 37 °C) by
100 nM of 3 – 6. (C) Concentration-dependent labeling of GzmA and GzmK (100 nM, 2 h, 37 °C) by 5 and
6. Protein samples were analyzed by SDS-PAGE and in-gel fluorescence scanning for Cy5 signal.
Protein loading was confirmed by SYPRO Ruby staining. […]

[1] = biological target: T2, GzmA in intact NK‐92 cells (Homo sapiens, UniProt P12544); test: Labeling of GzmA in intact NK-92 cells (in-gel fluorescence); format: cell-based; conditions: 2 h, 37 °C; for Labeling of GzmA in intact NK-92 cells: 1x10^6 NK-92 cells, lysis then in-gel fluorescence and GzmA western blot; for Cell permeability / cellular uptake: intact NK-92 cells, judged from labeling in intact cells
T2 construct: host or cells: NK-92
T2 sequence (P12544 29-262): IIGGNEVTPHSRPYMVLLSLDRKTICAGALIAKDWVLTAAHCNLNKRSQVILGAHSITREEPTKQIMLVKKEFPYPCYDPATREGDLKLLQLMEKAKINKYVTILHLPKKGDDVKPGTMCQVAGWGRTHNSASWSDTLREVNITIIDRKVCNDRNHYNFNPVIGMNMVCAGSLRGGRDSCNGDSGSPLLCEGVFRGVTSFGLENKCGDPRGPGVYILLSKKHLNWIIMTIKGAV
Experimental: Figure 4 Characterization of qABPs in native proteomes. A) Labeling of GzmA by 5 and 6 in lysates of various cell lines (1 h, 37 °C). B) Stability of 5 and 6 in buffer and cell media (11 h, 37 °C). The hydrolysis of probes was measured by monitoring the production of Cy5 fluorescence signal over time. […] C) Labeling of GzmA by probes 3 –6 in NK‐92 cells (2 h, 37 °C). D) Flow cytometry analysis of protein labeling in NK‐92 cells by 3 –5. […] E) Flow cytometry analysis of concentration‐dependent GzmA labeling in NK‐92 cells and S/N of 5 (5 μM, 2 h, 37 °C). […] F) Flow cytometry analysis of protein labeling by 5 in MDA‐MB‐231 cells co‐cultured with NK‐92 cells (see Supporting Information for conditions). […] TEXT PRINTED IN THE PICTURE: (E) qABP 5: S/N = 4 […]
Final reaction volume was 20 µL. […]
Conditions for Figure 4C: Various concentrations of probes 3-6 were incubated with 1x10^6 NK-92 cells for 2 h at 37 °C in a humidified incubator. Cells were centrifuged, washed with PBS (x2) and lysed with ~40 µL of ice-cold RIPA buffer. Lysates were collected, protein concentration was measured with PIERCE BCA protein assay and samples were analyzed with in-gel fluorescence and GzmA western blotting.
D. Flow cytometry analysis […]
Conditions for Figure 4F: In a 6-well cell culture plate, 5x10^5 MDA-MB-231 cells were seeded and allowed to attach overnight. After confirming cell attachment under the microscope, media were removed and fresh media containing 2x10^6 NK-92 cells (or NK-92 culture media alone for control) were added along with simultaneous addition of qABP 5 (5 µM). Cells were co-cultured for the indicated times at 37 °C under 5% CO2 in a humidified atmosphere. […]
E. Synthesis of compounds
1H, 13C and 31P spectra were acquired on a 500 MHz NMR in CDCl3 or CD3OD at 25 °C. The 1H chemical shifts are given in parts per million (δ) with respect to an internal tetramethylsilane (TMS, δ 0.00 ppm) standard. NMR data are reported in the following format: chemical shifts (multiplicity (s = singlet, d = doublet, t = triplet, m = multiplet), coupling constants [Hz], integration). LCMS data were acquired on Agilent 1200 series LC/MS or Shimadzu Prominence-i LC-2030s instrument, whereas HRMS data were obtained on an Agilent Q-TOF LC/MS/MS instrument. All compounds are >95% pure by HPLC analysis.

Substance | Labeling of GzmK (cross-reactivity) (GzmK) | Labeling of GzmA in intact NK-92 cells [1] | Cell permeability / cellular uptake [1]
IGNR [compound 5] | labeling was significantly weaker than for GzmA and required considerably higher probe concentrations | effectively labeled active GzmA in intact cells | excellent cellular uptake
[Tic]G[Oic]R [compound 6] | labeling was significantly weaker than for GzmA and required considerably higher probe concentrations | poor labeling | limited cell permeability; also recorded: cell impermeable
